We go through one molecule from article PMC5593639, “NSC30049 inhibits Chk1 pathway in 5-FU-resistant CRC bulk and stem cell populations” (Oncotarget, 2017).

One series concerns HCT-116 cells. Put plainly: Cell survival (MTT assay), HCT-116. In kind it is cell-based, human. Particulars: Homo sapiens, HCT-116, 48 h. As to the method: (§1) The survival of cells was determined by MTT (3-(4,5-Dimethylthiazol-2yl-)-2,5-diphenyl tetrazolium bromide) assay (ATCC, Manassas, VA, USA). In principle, the viable cell number is directly proportional to the purple formazan color of the reduced MTT dye, which can be quantitatively measured by spectrophotometry. Briefly, 1,500 cells were plated in quadruplets in 96-well flat-bottom tissue culture plates. After treatment with compounds for certain periods as described in respective figure legends, 10 μl of MTT reagent was added to each well and incubated at 37°C for 4 h to allow the formation of purple color crystals of formazan. In total, 100 μl of detergent solution was added to each well, and the reaction mixture was incubated in dark for 2–4 h at room temperature. The developed color density was then measured spectrophotometrically at 570 nm using the POLARstar Omega micro-plate reader (BMG Labtech, Inc., Cary, NC, USA).
For orientation: Tetrazolium assays rely on reduction of a dye to a coloured formazan, in cell work by metabolically active cells.

The test system of another series is HT29 cells. Put plainly: Cell cycle profile by FACS. In kind it is cell-based, human. Particulars: 2 mM HU 24 h. As to the method: For determining the cell cycle profile, cells were plated in 60 mm tissue culture dishes and grown until 60% confluence. […] After treatment, cells were harvested at different time intervals, washed with ice-cold PBS and processed for FACS analysis as described previously. The ranges for G0/G1, S, and G2/M phase arrested and sub-G1 apoptotic cells were established on the basis of the corresponding DNA content of the histograms. At minimum, 10,000 cells were counted from each sample.
For orientation: A flow cytometer gives signals particle by particle.

A further series concerns LoVo cells. As to the kind of experiment: Cell survival (MTT assay), LoVo. In kind it is cell-based. Particulars: Homo sapiens, drug alone, 48 h. As to the method: as §1
Series [1] has as its system ALDH1, KLF4, Nanog, Oct4, Sox2, c-Myc mRNA in CA2 cells. Put plainly: Stem cell marker and self-renewal gene mRNA levels by qRT-PCR. The class given is cell-based, human. To be noted: 72 h. As to the method:
Total RNA was isolated from control and treated cells with RNAzol reagent (Invitogen, Carlsbad, CA, USA). The expression of mRNA levels of stemness genes was determined by qRT-PCR using Bio-Rad CFX96 Real Time System C1000 Thermal Cycler. The primers used for amplification of mRNA levels of genes were from Celprogen, Inc., as shown here with their Gene Bank accession and catalog numbers: ALDHA1 (NM_000689, Cat. No. CepALDHA1-02), Klf4 (NM_004235, Cat No. CepKlf4-02), Nanog (NM_024865, Cat. No. CepNanog-02), Oct4 (NM_002701, Cat No. CepOct4-02), Sox2 (NM_003106, Cat. No. CepSox2-02), c-Myc (NM_002467, Cat. No. Cepc-Myc-02) and GAPDH (NM_002046, Cat. No. Cep-GAPDH-02).
Background: In qPCR the cycle at which signal appears reflects the starting amount.

Series [2] relates to Chk1 phosphorylation in HCT-116 cells. As to the kind of experiment: Western blot of total and phosphorylated Chk1, HCT-116. In kind it is cell-based, human. To be noted: NSC49L alone, 24 h. The method, then: (§2) The levels of various proteins were determined by Western blot analysis with our previously described procedure. The antibodies for phospho-Chk1(Ser317), phospho-Chk1(Ser317), phospho-Chk1(Ser319), phospho-Chk1(Ser345), Chk1, and GAPDH were purchased from Cell Signaling Technology (Danvers, MA, USA).

Series [3] can be described thus: Pharmacokinetic analysis in CD1 mice. In kind it is in vivo, male CD1 mice. To be noted: 20 mg/kg body weight, IP, plasma. The method, then:
Pharmacokinetic analysis of NSC30049 in CD1 mice was determined by Pharmaron, Inc. (Louisville, KY, USA). Mice were injected intraperitoneally (IP) with NSC49L (20 mg/kg body weight) and approximately 0.04 ml blood was collected at 0, 5, 15 and 30 min, 1, 2, 4, 8 and 24 h time point. Blood of each sample was transferred into plastic micro-centrifuge tubes containing 2 μl of Heparin (1,000 IU). Samples were stored in a freezer at −75 ± 15°C prior to analysis. Concentrations of NSC49L in the plasma samples was analyzed using a LC-MS/MS method. WinNonlin® (Phoenix®, version 6.1) software was used for pharmacokinetic calculations. The following pharmacokinetic parameters were calculated from the plasma concentration versus time data: T1/2, Cmax, AUClast, AUCinf, AUCextra%, Number of Points for Regression. The pharmacokinetic data is described using mean ± standard deviation (SD) and n = 3.

Series [4] concerns Chk1 phosphorylation in CA2 cells. Put plainly: Western blot of total and phosphorylated Chk1, CA2. The class given is cell-based, human. To be noted: NSC49L alone, 24 h. The method, then:
as §2

[5] abbreviates: HU withdrawn, then 20 μM NSC49L 8 h.
Setting [6] is: then 20 μM NSC49L additional 8 h in presence of HU.

`ClC/C=C/C[N+]12CN3CN(CN(C3)C1)C2` [NSC49L] came in with an IC50 in the series with HCT-116 cells (MTT assay, Figure 1B, three experiments) of 3.9 µM. In addition, the IC50 with HCT-116 cells (drug alone, MTT, Table 1, four estimations) is 2.8 ± 0.5 µM. In the series with HT29 cells (setting [5]), the “Cell cycle distribution G2/M” value came out at 26.1% and the “Cell cycle distribution S (S-phase arrest)” value amounted to 50.6%. Also, in the series with HT29 cells (setting [6]), the “Cell cycle distribution S (S-phase arrest)” value was determined as 39.7% and the “Entry of G2/M-phase” value is “complete blockage to the entry of G2/M-phase”. In the series with LoVo cells, this molecule came in with a concentration for half-maximal inhibition (IC50) of 4.2 ± 0.1 µM. In series [1] (NSC49L combined with 5-FU), the “mRNA levels of ALDH1, KLF4 and Nanog” value is given as “further decreased”. Further, in series [1] (drug alone, normalized with GAPDH), the “mRNA levels of ALDH1, KLF4, Nanog, Oct4, Sox2 and c-Myc” value is recorded as “decreased”. In series [2], the “Chk1(S317P) and Chk1(S296P) levels” value is “no effect”; the “Chk1(S345P) levels” value was “dose-dependent increase”. Besides, the AUC_%Extrap_obs in series [3] is given as 0.187 ± 293%. Besides, in series [3] (male, CD1, mouse), the area under the curve AUC(0-inf) amounted to 1310 ± 89 ng·h/mL, the exposure AUC(0-t) came to 1310 ± 86 ng·h/mL, the Cmax was 5530 ng/mL and the time to peak (Tmax) amounted to 4.98 min. Further, in series [3] (male, CD1, mouse, n = 3), the half-life was 14 ± 5.88 min. The AUC in series [3] (male, CD1, mouse, read-out: AUC (bioavailability)) is 1310 ± 86 ng·h/mL. Moreover, in series [4], the “Chk1(S317P) and Chk1(S296P) levels” value was “very little change”; the “Chk1(S345P) level” value is recorded as “increase in a dose-dependent manner”.

Usually IC50 stands for the point on the concentration scale where inhibition reaches its midpoint. The term AUC(0-inf) denotes the area under the concentration-time curve extrapolated to infinity. As usually defined, the AUC(0-t) is exposure summed from dosing to a finite time, without extrapolation to infinity. For orientation: Cmax means the maximum level reached in the sampled fluid or tissue. In general, Tmax refers to the time at which the peak concentration occurs. What is called half-life is how long it takes for the measured level to halve. High values mean slow decline, low ones rapid decline. As usually defined, the AUC is the area under the concentration-time curve, a measure of exposure.
